From patent US8916557B2, “Substituted 4-Aryl-N-phenyl-1,3,5-triazin-2-amines” (Bayer Intellectual Property GmbH, priority 2011, dated 2014)

Legend:
CDK9/CycT1 = molecular target: T1, CDK9/CycT1 (Homo sapiens, UniProt P50750); assay: CDK9/CycT1 kinase assay (TR-FRET); format: biochemical; conditions: Method 1, 10 μM ATP
T1 construct: Recombinant full-length His-tagged human CDK9 and CycT1; His; purchased Invitrogen PV4131; host or cells: insect cells
Source text: 1. CDK9/CycT1 Kinase Assay:
CDK9/CycT1-inhibitory activity of compounds of the present invention was quantified employing the CDK9/CycT1 TR-FRET assay as described in the following paragraphs:
Recombinant full-length His-tagged human CDK9 and CycT1, expressed in insect cells and purified by Ni-NTA affinity chromatography, were purchased from Invitrogen (Cat. No PV4131). As substrate for the kinase reaction biotinylated peptide biotin-Ttds-[…] (C-terminus in amid form) was used which can be purchased e.g. form the company JERINI Peptide Technologies (Berlin, Germany). For the assay 50 nl of a 100fold concentrated solution of the test compound in DMSO was pipetted into a black low volume 384well microtiter plate (Greiner Bio-One, Frickenhausen, Germany), 2 μl of a solution of CDK9/CycT1 in aqueous assay buffer [50 mM Tris/HCl pH 8.0, 10 mM MgCl2, 1.0 mM dithiothreitol, 0.1 mM sodium ortho-vanadate, 0.01% (v/v) Nonidet-P40 (Sigma)] were added and the mixture was incubated for 15 min at 22° C. to allow pre-binding of the test compounds to the enzyme before the start of the kinase reaction. Then the kinase reaction was started by the addition of 3 μl of a solution of adenosine-tri-phosphate (ATP, 16.7 μM=>final conc. in the 5 μl assay volume is 10 μM) and substrate (1.67 μM=>final conc. in the 5 μl assay volume is 1 μM) in assay buffer and the resulting mixture was incubated for a reaction time of 25 min at 22° C. The concentration of CDK9/CycT1 was adjusted depending of the activity of the enzyme lot and was chosen appropriate to have the assay in the linear range, typical concentrations were in the range of 1 μg/ml. The reaction was stopped by the addition of 5 μl of a solution of TR-FRET detection reagents (0.2 μM streptavidine-XL665 [Cisbio Bioassays, Codolet, France] and 1 nM anti-RB(pSer807/pSer811)-antibody from BD Pharmingen [#558389] and 1.2 nM LANCE EU-W1024 labeled anti-mouse IgG antibody [Perkin-Elmer, product no. AD0077]) in an aqueous EDTA-solution (100 mM EDTA, 0.2% (w/v) bovine serum albumin in 100 mM HEPES/NaOH pH 7.0).
(§1) The resulting mixture was incubated 1 h at 22° C. to allow the formation of complex between the phosphorylated biotinylated peptide and the detection reagents. Subsequently the amount of phosphorylated substrate was evaluated by measurement of the resonance energy transfer from the Eu-chelate to the streptavidine-XL. Therefore, the fluorescence emissions at 620 nm and 665 nm after excitation at 350 nm was measured in a HTRF reader, e.g. a Rubystar (BMG Labtechnologies, Offenburg, Germany) or a Viewlux (Perkin-Elmer). The ratio of the emissions at 665 nm and at 622 nm was taken as the measure for the amount of phosphorylated substrate.

CDK2/CycE = molecular target: T2, CDK2/CycE (Homo sapiens, UniProt P24941); assay: CDK2/CycE kinase assay (TR-FRET); format: biochemical; conditions: Method 2, 10 μM ATP
T2 construct: GST; purchased ProQinase GmbH (Freiburg, Germany); host or cells: insect cells (Sf9)
Source text: 2. CDK2/CycE Kinase Assay:
CDK2/CycE-inhibitory activity of compounds of the present invention was quantified employing the CDK2/CycE TR-FRET assay as described in the following paragraphs:
Recombinant fusion proteins of GST and human CDK2 and of GST and human CycE, expressed in insect cells (Sf9) and purified by Glutathion-Sepharose affinity chromatography, were purchased from ProQinase GmbH (Freiburg, Germany). As substrate for the kinase reaction biotinylated peptide biotin-Ttds-[…] (C-terminus in amid form) was used which can be purchased e.g. form the company JERINI Peptide Technologies (Berlin, Germany).
For the assay 50 nl of a 100fold concentrated solution of the test compound in DMSO was pipetted into a black low volume 384well microtiter plate (Greiner Bio-One, Frickenhausen, Germany), 2 μl of a solution of CDK2/CycE in aqueous assay buffer [50 mM Tris/HCl pH 8.0, 10 mM MgCl2, 1.0 mM dithiothreitol, 0.1 mM sodium ortho-vanadate, 0.01% (v/v) Nonidet-P40 (Sigma)] were added and the mixture was incubated for […] at 22° C. to allow pre-binding of the test compounds to the enzyme before the start of the kinase reaction. Then the kinase reaction was started by the addition of 3 μl of a solution of adenosine-tri-phosphate (ATP, 16.7 μM=>final conc. in the 5 it assay volume is 10 μM) and substrate (1.25 μM=>final conc. in the 5 it assay volume is 0.75 μM) in assay buffer and the resulting mixture was incubated for a reaction time of […] at 22° C. The concentration of CDK2/CycE was adjusted depending of the activity of the enzyme lot and was chosen appropriate to have the assay in the linear range, typical concentrations were in the range of 130 ng/ml. The reaction was stopped by the addition of 5 it of a solution of TR-FRET detection reagents (0.2 μM streptavidine-XL665 [Cisbio Bioassays, Codolet, France] and 1 nM anti-RB(pSer807/pSer811)-antibody from BD Pharmingen [#558389] and 1.2 nM LANCE EU-W1024 labeled anti-mouse IgG antibody [Perkin-Elmer, product no. AD0077]) in an aqueous EDTA-solution (100 mM EDTA, 0.2% (w/v) bovine serum albumin in 100 mM HEPES/NaOH pH 7.0).
as §1, with “TR-FRET” for “HTRF”

[1] = tested on: HeLa human cervical tumour cells; assay: Proliferation assay (crystal violet), HeLa; format: cell-based; conditions: read-out: Inhibition of HeLa cell proliferation
Experimental: Cultivated tumour cells (NCI-H460, human non-small cell lung carcinoma cells, ATCC HTB-177; DU 145, hormone-independent human prostate carcinoma cells, ATCC HTB-81; HeLa-MaTu, human cervical carcinoma cells, EPO-GmbH, Berlin; HeLa-MaTu-ADR, multidrug-resistant human cervical carcinoma cells, EPO-GmbH, Berlin; HeLa human cervical tumour cells, ATCC CCL-2; Caco-2 human colorectal carcinoma, ATCC HTB-37; B16F10 mouse melanoma cells, ATCC CRL-6475) were plated at a density of 5000 cells/well (DU145, HeLa-MaTu-ADR), 3000 cells/well (NCI-H460, HeLa-MaTu, HeLa), 1500 cells/well (Caco-2), or 1000 cells/well (B16F10) in a 96-well multititer plate in 200 μL of their respective growth medium supplemented 10% fetal calf serum. After 24 hours, the cells of one plate (zero-point plate) were stained with crystal violet (see below), while the medium of the other plates was replaced by fresh culture medium (200 μl), to which the test substances were added in various concentrations (0 μM, as well as in the range of 0.001-10 μM; the final concentration of the solvent dimethyl sulfoxide was 0.5%). The cells were incubated for 4 days in the presence of test substances. Cell proliferation was determined by staining the cells with crystal violet: the cells were fixed by adding 20 μl/measuring point of an 11% glutaric aldehyde solution for 15 minutes at room temperature. After three washing cycles of the fixed cells with water, the plates were dried at room temperature. The cells were stained by adding 100 μl/measuring point of a 0.1% crystal violet solution (pH 3.0). After three washing cycles of the stained cells with water, the plates were dried at room temperature. The dye was dissolved by adding 100 μl/measuring point of a 10% acetic acid solution. The extinction was determined by photometry at a wavelength of 595 nm. The change of cell number, in percent, was calculated by normalization of the measured values to the extinction values of the zero-point plate (=0%) and the extinction of the untreated (0 μm) cells (=100%). The IC50 values were determined by means of a 4 parameter fit.

T1 sequence (P50750 whole entry): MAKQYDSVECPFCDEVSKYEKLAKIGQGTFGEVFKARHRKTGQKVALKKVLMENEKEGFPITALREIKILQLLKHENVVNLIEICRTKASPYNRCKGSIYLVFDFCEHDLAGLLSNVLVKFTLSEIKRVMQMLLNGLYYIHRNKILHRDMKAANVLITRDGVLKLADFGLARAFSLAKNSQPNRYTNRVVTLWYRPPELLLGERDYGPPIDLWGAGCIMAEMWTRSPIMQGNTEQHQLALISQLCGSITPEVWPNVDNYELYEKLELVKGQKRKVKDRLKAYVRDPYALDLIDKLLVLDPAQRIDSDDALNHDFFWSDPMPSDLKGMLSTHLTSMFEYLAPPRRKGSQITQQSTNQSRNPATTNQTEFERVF
T1 sequence (O60563 whole entry partner): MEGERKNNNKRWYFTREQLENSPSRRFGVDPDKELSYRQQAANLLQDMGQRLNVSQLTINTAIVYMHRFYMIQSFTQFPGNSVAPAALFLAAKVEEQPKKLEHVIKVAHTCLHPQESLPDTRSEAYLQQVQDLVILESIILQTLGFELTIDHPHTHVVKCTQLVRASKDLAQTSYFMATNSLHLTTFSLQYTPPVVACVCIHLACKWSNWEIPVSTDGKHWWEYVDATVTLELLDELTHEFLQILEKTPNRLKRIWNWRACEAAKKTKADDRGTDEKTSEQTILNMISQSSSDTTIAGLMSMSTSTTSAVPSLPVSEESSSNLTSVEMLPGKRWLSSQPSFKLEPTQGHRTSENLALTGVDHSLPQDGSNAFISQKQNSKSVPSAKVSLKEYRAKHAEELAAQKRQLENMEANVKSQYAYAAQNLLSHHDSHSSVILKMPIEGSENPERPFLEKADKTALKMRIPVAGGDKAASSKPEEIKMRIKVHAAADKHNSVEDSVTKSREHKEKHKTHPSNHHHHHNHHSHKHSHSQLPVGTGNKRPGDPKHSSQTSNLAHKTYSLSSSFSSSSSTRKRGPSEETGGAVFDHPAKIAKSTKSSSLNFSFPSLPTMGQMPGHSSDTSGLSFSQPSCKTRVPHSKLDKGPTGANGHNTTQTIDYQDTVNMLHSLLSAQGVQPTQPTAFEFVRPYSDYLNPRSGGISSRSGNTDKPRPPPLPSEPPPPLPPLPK

Row | IC50 (CDK9/CycT1) [nM] | IC50 (CDK2/CycE) [nM] | IC50 [1] [nM] | SMILES
1 | 46 | 5100 | 1700 | CC(C)COc1cc(F)ccc1-c1ncnc(Nc2cccc(CS(C)(=O)=O)c2)n1 [Example 58, 4-[4-Fluoro-2-(2-methylpropoxy)phenyl]-N-{3-[(methylsulfonyl)methyl]phenyl}-1,3,5-triazin-2-amine]
2 | 27 | 1400 | 1100 | CS(=O)(=O)Cc1cccc(Nc2ncnc(-c3ccc(F)cc3OCC3CCC3)n2)c1 [Example 56, 4-[2-(Cyclobutylmethoxy)-4-fluorophenyl]-N-{3-[(methylsulfonyl)methyl]phenyl}-1,3,5-triazin-2-amine]
3 | 5 |  | 820 | CS(=O)(=O)Cc1cccc(Nc2ncnc(-c3ccc(F)cc3OCc3cc(F)ccc3F)n2)c1 [Example 81, 4-{2-[(2,5-Difluorobenzyl)-oxy]-4-fluorophenyl}-N-{3-[(methylsulfonyl)methyl]phenyl}-1,3,5-triazin-2-amine]
4 | 38 | 490 | 2900 | COCCOc1cc(F)ccc1-c1ncnc(Nc2cccc(CS(C)(=O)=O)c2)n1 [Example 50, 4-[4-Fluoro-2-(2-methoxyethoxy)phenyl]-N-{3-[(methylsulfonyl)methyl]-phenyl}-1,3,5-triazin-2-amine]
5 | 29 | 1500 | 1300 | CS(=O)(=O)Cc1cccc(Nc2ncnc(-c3ccc(F)cc3OCCCF)n2)c1 [Example 54, 4-[4-Fluoro-2-(3-fluoropropoxy)phenyl]-N-{3-[(methylsulfonyl)methyl]phenyl}-1,3,5-triazin-2-amine]
6 | 4 | 990 | 1000 | CCCCCOc1cc(F)ccc1-c1ncnc(Nc2cccc(CS(C)(=O)=O)c2)n1 [Example 45, 4-[4-Fluoro-2-(pentyloxy)phenyl]-N-{3-[(methylsulfonyl)-methyl]phenyl}-1,3,5-triazin-2-amine]
7 | 11 | 640 | 1200 | CC1(COc2cc(F)ccc2-c2ncnc(Nc3cccc(CS(C)(=O)=O)c3)n2)CC1 [Example 49, 4-{4-Fluoro-2-[(1-methylcyclopropyl)methoxy]phenyl}-N-{3-[(methylsulfonyl)-methyl]phenyl}-1,3,5-triazin-2-amine]
8 | 16 | 950 | 1300 | CS(=O)(=O)Cc1cccc(Nc2ncnc(-c3ccc(F)cc3OCCC3CCCC3)n2)c1 [Example 53, 4-[2-(2-Cyclopentylethoxy)-4-fluorophenyl]-N-{3-[(methylsulfonyl)methyl]phenyl}-1,3,5-triazin-2-amine]
9 | 7 | 570 | 1100 | CS(=O)(=O)Cc1cccc(Nc2ncnc(-c3ccc(F)cc3OCc3cccnc3)n2)c1 [Example 74, 4-[4-Fluoro-2-(pyridin-3-ylmethoxy)phenyl]-N-{3-[(methylsulfonyl)methyl]phenyl}-1,3,5-triazin-2-amine]

The remaining lines, values behind:

Row | SMILES | IC50 (CDK9/CycT1) [nM] | IC50 (CDK2/CycE) [nM] | IC50 [1] [nM]
10 | COc1cccc(COc2cc(F)ccc2-c2ncnc(Nc3cccc(CS(C)(=O)=O)c3)n2)c1 [Example 70, 4-{4-Fluoro-2-[(3-methoxybenzyl)oxy]phenyl}-N-{3-[(methylsulfonyl)-methyl]phenyl}-1,3,5-triazin-2-amine] | 14 | 1100 | 1300
11 | C[C@@H](Oc1cc(F)ccc1-c1ncnc(Nc2cccc(CS(C)(=O)=O)c2)n1)c1ccc(F)cc1 [Example 67, 4-{4-Fluoro-2-[(1R)-1-(4-fluorophenyl)ethoxy]phenyl}-N-{3-[(methylsulfonyl)-methyl]phenyl}-1,3,5-triazin-2-amine] | 8 | 1300 | 1600
12 | COCCS(=O)(=O)Cc1cccc(Nc2ncnc(-c3ccc(F)cc3OC)n2)c1 [Example 23, 4-(4-Fluoro-2-methoxyphenyl)-N-(3-{[(2-methoxyethyl)sulfonyl]methyl}phenyl)-1,3,5-triazin-2-amine] | 12 | 1300 | 930
13 | CS(=O)(=O)Cc1cccc(Nc2ncnc(-c3ccc(F)cc3OCc3ccc(Cl)cc3)n2)c1 [Example 76, 4-{2-[(4-Chlorobenzyl)oxy]-4-fluorophenyl}-N-{3-[(methylsulfonyl)methyl]phenyl}-1,3,5-triazin-2-amine] | 6 | 710 | 1000
14 | CS(=O)(=O)Cc1cccc(Nc2ncnc(-c3ccc(F)cc3OCC3CCCCC3)n2)c1 [Example 57, 4-[2-(Cyclohexylmethoxy)-4-fluorophenyl]-N-{3-[(methylsulfonyl)methyl]phenyl}-1,3,5-triazin-2-amine] | 7 | 2400 | 1100
15 | CC(C)S(=O)(=O)Cc1cccc(Nc2ncnc(-c3ccccc3OCc3ccc(F)cc3)n2)c1 [Example 37, 4-{2-[(4-Fluorobenzyl)oxy]phenyl}-N-{3-[(prop-2-ylsulfonyl)methyl]phenyl}-1,3,5-triazin-2-amine] | 9 | 2500 | 1100
16 | CS(=O)(=O)Cc1cccc(Nc2ncnc(-c3ccc(F)cc3OCc3cc(F)cc(C(F)(F)F)c3)n2)c1 [Example 78, 4-(4-Fluoro-2-{[3-fluoro-5-(trifluoromethyl)benzyl]oxy}phenyl)-N-{3-[(methylsulfonyl)-methyl]-phenyl}-1,3,5-triazin-2-amine] | 4 |  | 950
17 | CS(=O)(=O)Cc1cccc(Nc2ncnc(-c3ccc(F)cc3OCc3cc(F)c(F)cc3F)n2)c1 [Example 75, 4-{4-Fluoro-2-[(2,4,5-trifluorobenzyl)oxy]phenyl}-N-{3-[(methylsulfonyl)-methyl]phenyl}-1,3,5-triazin-2-amine] | 6 |  | 1100
18 | CS(=O)(=O)Cc1cccc(Nc2ncnc(-c3cccc4c3OC(F)(F)C(F)(F)O4)n2)c1 [Example 19, N-{3-[(Methylsulfonyl)methyl]phenyl}-4-(2,2,3,3-tetrafluoro-2,3-dihydro-1,4-benzodioxin-5-yl)-1,3,5-triazin-2-amine] | 35 | 640 | 
